Reference: PubChem BioAssay (NCI)
“And” between values parts separate entries of the source, which are not always exact repeats. Identical values can stand only once.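 Cultured in 96-well plates, cells were exposed to test compound for 48 hours across five concentrations. Here, GI50 denotes the concentration required for 50% inhibition of growth. TGI marks complete inhibition of growth.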

Key:
Experiment in all cases: NCI anticancer screen, dose series, 48 h
SF-295 CNS = system: SF-295 CNS
BT-549 breast = system: BT-549 breast
SF-539 CNS = system: SF-539 CNS
SF-268 CNS = system: SF-268 CNS
UACC-62 melanoma = system: UACC-62 melanoma
CCRF-CEM leukemia = system: CCRF-CEM leukemia
LOX IMVI melanoma = system: LOX IMVI melanoma
MOLT-4 leukemia = system: MOLT-4 leukemia
MDA-MB-435 = system: MDA-MB-435
HL-60(TB) leukemia = system: HL-60(TB) leukemia

Structure (SMILES) | GI50 (SF-295 CNS) [µM] | TGI (SF-295 CNS) [µM] | GI50 (BT-549 breast) [µM] | TGI (BT-549 breast) [µM] | GI50 (SF-539 CNS) [µM] | TGI (SF-539 CNS) [µM] | GI50 (SF-268 CNS) [µM] | TGI (SF-268 CNS) [µM] | GI50 (UACC-62 melanoma) [µM] | TGI (UACC-62 melanoma) [µM] | GI50 (CCRF-CEM leukemia) [µM] | TGI (CCRF-CEM leukemia) [µM] | GI50 (LOX IMVI melanoma) [µM] | TGI (LOX IMVI melanoma) [µM] | GI50 (MOLT-4 leukemia) [µM] | TGI (MOLT-4 leukemia) | GI50 (MDA-MB-435) [µM] | TGI (MDA-MB-435) [µM] | TGI (HL-60(TB) leukemia) [µM] | GI50 (HL-60(TB) leukemia) [µM]
COC(=O)c1cc(-c2cc(OC)c(OC)c(OC)c2)[nH]c1N/N=C/c1c(Cl)cccc1Cl | 1.01 | 22.8 | 2.74 | 16.3 | 1.35 | 5.47 | 1.35 | 11.2 | 1.47 | 16.2 | 14.1 | > 100 | 2.67 | 17.3 | 9.27 | > 56.3 µM | 0.247 | 8.61 | > 100 | –
COc1ccc(C(=O)COc2cccc(/C=C3\CSc4ccccc4C3=O)c2)cc1 | 1.87 | 3.77 | 1.8 | 3.67 | 2.95 | 8.51 | 2.47 | 5.77 | 1.72 | 3.3 | 0.313 | 1.09 | 1.54 | 2.98 | 0.913 | 19.3 µM | 1.98 | 4.62 | > 23.2 | 2.25
COc1ccc(-c2nnc(SCC(=O)Nc3ccc(/C(C)=N\O)cc3)n2-c2ccccc2)cc1OC | 3.39 | 37.7 | 13.7 | > 100 | 4.77 | 38.9 | 3.07 | 20.3 | > 100 | > 100 | > 100 | > 100 | > 100 | > 100 | > 100 | > 100 µM | > 100 | > 100 | > 100 | > 100
N=c1c2c(-c3ccccc3)c(-c3ccccc3)n(Cc3ccccc3)c2ncn1CCCO | 0.58 | 3.32 | 7.81 | 21.2 | 1.24 | 4.17 | 0.894 | 20.8 | 1.91 | 14.4 | 1.87 | 12.8 | 0.5 | 2.77 | 0.743 | 11.4 µM | 1.61 | 16.8 | 4.74 | 1.77
Nc1ncnc2c1ncn2CC(O)C(=O)O (centres undefined) | – | > 100 | – | > 100 | – | > 100 | – | > 100 | – | > 100 | – | > 100 | – | > 100 | – | > 100 µM | – | > 100 | > 100 | –
N#Cc1cccc(C(=O)Nc2cccc(NC(=O)c3cccc(C#N)c3)c2)c1 | > 100 | > 100 | > 100 | > 100 | 57.7 | > 100 | 17 | 56 | 34.1 | > 100 | – | – | – | – | 86.5 | > 100 µM | > 100 | > 100 | – | –
CC1=CCC(OC(=O)C(C)(C)CCC(O)(C(=O)OC2(C(C)C)CCC3(C)OC3C2)C(C)C)(C(C)C)CC1 (centres undefined) | 0.69 | 1.39 | 0.696 | 1.51 | 0.707 | 1.36 | 0.603 | 1.46 | 0.298 | 1.11 | 0.132 | 50 | 0.0764 | 0.15 | 0.131 | 4.99 µM | 0.355 | 1.04 | 7.93 | 0.229
O=C1Nc2ccccc2C1Cc1ccc([N+](=O)[O-])cc1 (centres undefined) | – | > 100 | – | > 100 | – | – | – | > 100 | – | > 100 | – | > 100 | – | > 100 | – | > 100 µM | – | > 100 | > 100 | –
O=C1c2ccc3c4c5ccc(c24)C(=O)N1CCCOCCCCOCCCNCc1ccc(cc1)CNCCCOCCCCOCCCN(C3=O)C5=O | 0.881 | 1.69 | 1.62 | 4.87 | 0.871 | 1.64 | 0.972 | 2.43 | 0.889 | 1.63 | 0.889 | 2.84 | 0.797 | 1.52 | 0.981 | 2.62 µM | 0.873 | 1.59 | 2.03 | 1.01
O=C1/C(=C/c2ccc([N+](=O)[O-])o2)Oc2ccc(Br)cc21 | 17.1 | 36.8 | 1.87 | 3.5 | 1.89 | 4.19 | 2.04 | 4.16 | 1.84 | 4.09 | 2 | 4.97 | 1.82 | 3.55 | 3.07 | 9.4 µM | 1.9 | 4.03 | 25.7 | 6.7
Cc1ccc2c(c1C)-c1c(ccc(C)c1C)C(=O)C2=O | – | 2.95 | – | 1.06 | – | 0.42 | – | 5.38 | – | 1.68 | – | 0.991 | – | 3.76 | – | 0.686 µM | – | 0.619 | 0.702 | –
NC(=O)c1cc([N+](=O)[O-])c(Cl)c([N+](=O)[O-])c1 | 17.3 | 31.9 | 2.52 | 5.56 | 2.02 | 4 | 4.66 | 16.2 | 2.43 | 7.13 | – | – | 1.86 | 3.7 | 2.62 | 5.68 µM | 5.99 | 19.2 | 8.55 | 3.21
O=C1/C(=C/c2ccc3c(c2)OCO3)CCC1CN1CCOCC1 (centres undefined) | – | 33.7 | – | 42.1 | – | 28.1 | – | 28.8 | – | 20.5 | – | 5.91 | – | 7.84 | – | 9.46 µM | – | 40.6 | 3.99 | –
CC(=O)NCCSC(=O)c1ccccc1 | – | 0.83 | – | 3.75 | – | 1.39 | – | 2.02 | – | 0.0786 | – | 0.49 | – | 0.306 | – | 0.0902 µM | – | 0.371 | 0.829 | 0.026
O=C(CCCCCCSc1nc(-c2ccccc2)cc(-c2ccccc2)n1)NO | 2.18 | 5.78 | 3.16 | 18.4 | 2.43 | 10 | 2.7 | 7.42 | 1.35 | 3.85 | 0.535 | 5.36 | 1.86 | 3.84 | 0.42 | 3.3 µM | 1.98 | 11.2 | – | –
Cn1ccc2c(c1=O)C(=O)c1nccc3c1c-2nc1ccccc13 | 1.54 | 3.02 | 2.12 | 4.77 | 1.83 | 3.42 | – | – | 1.54 | 2.93 | 2.21 | > 100 | 1.4 | 2.81 | 2.26 | 7.01 µM | 1.62 | 3.13 | 5.03 | 2.21
Cc1nc2sc(C(=O)Nc3cccc4ccccc34)c(N)c2cc1C(=O)/C=C/c1ccccc1 | 0.514 | 3.89 | 0.413 | 1.92 | 0.265 | 1.16 | 1.15 | > 32.4 | 0.235 | 3.8 | 0.178 | > 24.9 | 0.183 | 0.64 | 0.251 | > 28.4 µM | 0.116 | 0.274 | 1.82 | 0.353
COc1ccc2c(c1)c(-c1nc(-c3c[nH]c4ncccc34)cs1)cn2CCCCN1CCOCC1 | 1.93 | 4.07 | 3.74 | 15.5 | 1.67 | 3.11 | 1.8 | 3.93 | 1.87 | 3.93 | 2.12 | 5.1 | 1.71 | 3.19 | 1.86 | 3.92 µM | 1.7 | 3.17 | 3.85 | 1.94
Cc1nc2cnc3cc(F)c(-c4ccc(Oc5ncccn5)cc4Cl)cc3c2n1[C@H]1CCN(C(=O)CO)C[C@@H]1F | 8.41 | > 57.1 | 7.51 | 23.1 | 3.03 | 16.9 | 6.12 | > 100 | 0.0134 | 0.0875 | 1.69 | > 76.8 | 0.417 | 11.5 | 0.792 | 30 µM | 0.0692 | > 60.7 | 1.69 | 0.106
C[C@]12CC[C@@H]3c4ccc(O)cc4CC[C@H]3[C@@H]1CC[C@@H]2NS(=O)(=O)c1cccc(C(F)(F)F)c1 | 1.86 | 3.63 | 2.7 | 7.48 | 4.21 | 16.2 | 4.52 | 18.5 | 2.66 | 10.7 | 3.46 | 24.1 | – | – | 3.2 | 16.7 µM | 2.8 | 8.62 | 15.5 | 3.54
c1cc(CCN2CCCCC2)ccn1 | – | > 100 | – | > 100 | – | > 100 | – | > 100 | – | > 100 | – | – | – | > 100 | – | > 100 µM | – | > 100 | – | –
CN(CC(=O)O)c1ccc(/C=C/c2ccnc3ccccc23)cc1 | – | 54.5 | – | 70.4 | – | > 100 | – | 61.1 | – | 52.2 | – | 72.5 | – | 45.7 | – | – | – | 51.1 | 48.2 | –
N#Cc1c(N)nc(N2CCOCC2)c(C#N)c1-c1ccc(Cl)cc1 | 44.8 | > 100 | 32 | > 100 | 49 | > 100 | 61.7 | > 100 | 23 | > 100 | 34.5 | > 100 | 29.2 | > 100 | 43.7 | > 100 µM | 65.3 | > 100 | – | –
CCCCCCC#Cc1ccccc1C#CCO | 16.2 | 30.2 | 17 | 32.9 | 19 | 35.6 | 30.6 | 65.2 | 19.1 | 43.6 | – | – | 20.3 | 49.3 | – | – | 18.4 | 37.2 | > 100 | 38.7
COC(C(=O)C(O)C(C)O)C1Cc2cc3cc(OC4CC(OC(C)=O)C(OC5CC(O)C(OC)C(C)O5)C(C)O4)cc(O)c3c(O)c2C(=O)C1OC1CC(OC2CC(OC3CC(C)(O)C(OC(=O)C(C)C)C(C)O3)C(O)C(C)O2)C(O)C(C)O1 (centres undefined) | – | – | – | 0.0444 | 0.000553 | – | – | – | 0.00129 | – | – | – | – | – | – | 0.306 µM and 0.147 µM | – | 0.21 | – | –
COc1ccn2c(C(C)=O)cc(C(=O)c3ccc4c(c3)Sc3ccccc3N4)c2c1 | – | – | 0.134 | > 100 | 0.0654 | 0.206 | 0.141 | > 100 | 0.0894 | > 100 | 0.135 | > 100 | 0.15 | > 100 | 0.155 | > 100 µM | 0.019 | 0.0454 | – | –
C/C(=C\c1ccn(-c2ccc(N)c(F)c2)n1)[C@@H]1C[C@@H]2O[C@]2(C)CCC[C@H](C)[C@H](O)[C@@H](C)C(=O)C(C)(C)[C@@H](O)CC(=O)O1 | 0.0205 | > 50 | 0.041 | 25.4 | 0.012 | 0.11 | 0.0418 | > 50 | 0.0517 | > 50 | 0.0114 | > 50 | 0.0121 | > 50 | 0.0106 | > 50 µM | – | – | 0.323 | 0.00873
COc1ccc(C(=O)/C=C/c2c(C(F)(F)F)nc3sccn23)cc1OC | 3.14 | 22.6 | 3.25 | > 100 | 2.36 | 8.52 | 3.44 | > 100 | 4.85 | > 100 | 2.33 | > 100 | – | – | 2.22 | > 100 µM | 1.85 | > 100 | 3.86 | 1
COc1ccc(-c2cc(-c3ccccc3)nc(N3CCN(CCNc4ccnc5cc(Cl)ccc45)CC3)n2)cc1 | 16.6 | 33 | 14.6 | 32.3 | 1.53 | 3.06 | 1.75 | 3.81 | 3.48 | 11.2 | 2.19 | > 100 | 1.76 | 3.24 | – | – | 1.8 | 3.31 | – | –
